Data taken from patent US4824944A, “Antineoplastic enamine derivatives of daunorubicin and adriamycin” (Politechnika Gdanska, priority 1987, dated 1989).

Columns and labels:
[1] = Acute toxicity in mice after intraperitoneal administration (LD50, 24 hours); type: in vivo; conditions: mouse, in vivo, ip; mice, intraperitoneal, death of one-half after 24 hours
Description: (§1) The following Table I sets forth the comparative results of the effectiveness of the parent antibiotic, daunorubicin, in the inhibition of the growth of the cancerous cells of murine leukemia P-388 in mice versus the anticancer activity of enamine derivatives of daunorubicin according to the present invention. ED50 denotes the concentration of the compound being tested leading to 50 percent inhibition of cancerous cell growth at 48 hours incubation time of the compound being tested. LD50 indicates the dosage of the tested compounds which cause death after 24 hours of one-half of the number of mice which have been intraperitonically administered the subject compound. T/C in percent represents the ratio of mean survival time of the group of treated mice versus the group of untreated mice.

murine leukemia P-388 = assay: Anticancer activity in mice with leukemia P-388, survival time (T/C); type: in vivo; conditions: for T/C (second value, in parentheses): not explained
Description: as §1

cardiac muscle of rats [2] = conditions: i.p., three dosage levels (0.2, 10, 20 mg/kg), H+E, light and polarizing microscopes; cited from earlier work
mice = assay: Acute toxicity in mice after intraperitoneal administration (LD50, 24 hours); type: in vivo; conditions: daunorubicin versus the inventive derivatives
Description: as §1

cardiac muscle of rats [3] = assay: Examination of the cardiac muscle of rats after intraperitoneal administration (cardiotoxicity); type: in vivo; conditions: i.p., 0.2, 10 and 20 mg/kg, versus daunorubicin
Description: Preparations from cardiac muscle tinted with H+E have been examined under light and polarizing microscopes.

Structure (SMILES)	LD50 at 24 h [1]	T/C (murine leukemia P-388; Dose (mg/kg) 3 130)	T/C (murine leukemia P-388; Dose (mg/kg) 6 250)	T/C (murine leukemia P-388; Dose (mg/kg) 12 500)	T/C (murine leukemia P-388; Dose (mg/kg) 25 000)	T/C (second value, in parentheses) (murine leukemia P-388; Dose (mg/kg) 25 000)	T/C (murine leukemia P-388; Dose (mg/kg) 50 000)	T/C (second value, in parentheses) (murine leukemia P-388; Dose (mg/kg) 50 000)	T/C (murine leukemia P-388; Dose (mg/kg) 100 000)	T/C (murine leukemia P-388; Dose (mg/kg) 200 000)	subsegmentary contractions / disturbances in heart rhythm (cardiac muscle of rats [2])	dosage level of toxic effects (mice)	morphological and ultrastructural changes to muscular tissue (cardiac muscle of rats [3])
COc1cccc2c1C(=O)c1c(O)c3c(c(O)c1C2=O)C[C@@](O)(C(C)=O)C[C@@H]3O[C@H]1C[C@H](NC(C)=CC(C)=O)[C@H](O)[C@H](C)O1 [N--(penten-2-on-4 yl-2)-daunorubicin, N-(penten-2-on-4-yl-2) daunorubicin]	500 mg/kg	131%	110%	119%	125%	131%	118%	144%	147%	toxic	–	–	–
COc1cccc2c1C(=O)c1c(O)c3c(c(O)c1C2=O)C[C@@](O)(C(C)=O)C[C@@H]3O[C@H]1C[C@H](N)[C@H](O)[C@H](C)O1 [Daunorubicin, daunorubicin]	135 mg/kg	108%	112%	112%	127%	–	102%	–	–	–	leads to the formation of numerous subsegmentary contractions causing, in effect, disturbances in heart rhythm	occur at a far lower dosage level as opposed to the inventive derivatives	–
CCOC(=O)C=C(C)N[C@H]1C[C@H](O[C@H]2C[C@](O)(C(C)=O)Cc3c(O)c4c(c(O)c32)C(=O)c2c(OC)cccc2C4=O)O[C@@H](C)[C@H]1O [N-(1-carboethoxy-propen-1-yl-2)-daunorubicin]	500 mg/kg	94%	103%	103%	115%	119%	132%	128%	144%	102%	does not cause said disturbances, the cardiac muscle evidencing a regular and alternating system of isotropic and anizotropic fringes	–	considerably less morphological and ultrastructural changes to muscular tissue than does the initial daunorubicin
